Where two headings read alike, the source gives them in different places.
How the values were obtained:
[1] = test system: Fusarium graminearum; assay type: in vivo; conditions: 100 μM chaperone; 10 days postinoculation
[2] = test system: F. graminearum; assay type: cell-based, Fusarium graminearum; conditions: 100 μM; rich solid medium, no host
[3] = test system: Triticum aestivum leaf segments; assay type: cell-based; conditions: for Tunicamycin induced cell death: wheat, co-treatment 100 μM chaperone with 10 μg/ml tunicamycin, 72h
[4] = test system: F. graminearum; assay type: in vivo, Fusarium graminearum; conditions: 100 μM chaperone; for Proliferation of F. graminearum on host tissue (GFP-tagged fungal cells, PCR): moss tissues; for Cell death markers (chlorosis, TUNEL-positive nuclei, Evans Blue staining, ROS induction) by the fungal pathogen: moss
[5] = test system: Physcomitrella patens gametophore cells; assay type: cell-based; conditions: for Tunicamycin induced cell death: moss, co-treatment 100 μM chaperone with 10 μg/ml tunicamycin, 72h
[6] = test system: F. graminearum; assay type: in vivo, Fusarium graminearum; conditions: 100 μM chaperone; for Proliferation of F. graminearum on host tissue (GFP-tagged fungal cells, PCR): wheat tissues; for Cell death markers (chlorosis, TUNEL-positive nuclei, Evans Blue staining, ROS induction) by the fungal pathogen: wheat

O=C(O)CCCc1ccccc1 [PBA, 4-phenylbutyric acid]
Fungal growth on inoculated wheat seeds [1]: suppression of fungal growth
Fungal growth and reproduction on solid growth medium [2]: did not affect fungal growth and reproduction
Tunicamycin induced cell death [3]: attenuated
Proliferation of F. graminearum on host tissue (GFP-tagged fungal cells, PCR) [4]: significantly suppress
Cell death markers (chlorosis, TUNEL-positive nuclei, Evans Blue staining, ROS induction) by the fungal pathogen [4]: attenuated
Tunicamycin induced cell death [5]: attenuated
Proliferation of F. graminearum on host tissue (GFP-tagged fungal cells, PCR) [6]: significantly suppress
Cell death markers (chlorosis, TUNEL-positive nuclei, Evans Blue staining, ROS induction) by the fungal pathogen [6]: attenuated

C[C@H](CCC(=O)NCCS(=O)(=O)O)[C@H]1CC[C@H]2[C@@H]3[C@@H](O)C[C@@H]4C[C@H](O)CC[C@]4(C)[C@H]3CC[C@]12C [TUDCA, tauroursodeoxycholic acid]
Fungal growth on inoculated wheat seeds [1]: suppression of fungal growth
Fungal growth and reproduction on solid growth medium [2]: did not affect fungal growth and reproduction
Tunicamycin induced cell death [3]: attenuated
Proliferation of F. graminearum on host tissue (GFP-tagged fungal cells, PCR) [4]: significantly suppress
Cell death markers (chlorosis, TUNEL-positive nuclei, Evans Blue staining, ROS induction) by the fungal pathogen [4]: attenuated
Tunicamycin induced cell death [5]: attenuated
Proliferation of F. graminearum on host tissue (GFP-tagged fungal cells, PCR) [6]: significantly suppress
Cell death markers (chlorosis, TUNEL-positive nuclei, Evans Blue staining, ROS induction) by the fungal pathogen [6]: attenuated

Tunicamycin
Cell death (Evans Blue staining) compared to untreated control [3]: more cell death
Cell death (Evans Blue staining) compared to untreated control [5]: more cell death

— patent publication US20100261694A1 (priority 2009, published 2010)
